Source: US11957684B2, “Treatment of heavy menstrual bleeding associated with uterine fibroids” (Sumitomo Pharma Switzerland GmbH, priority 2016, dated 2024)

Tested on: women with uterine fibroids
Settings: in vivo
Text: Secondary endpoints for safety included: Adverse events (AEs), vital signs, weight, standard 12-lead electrocardiogram (ECG), clinical laboratory tests, BMD, biochemical bone metabolism markers (serum N-telopeptide [NTELOP] and bone specific alkaline phosphatase [BAP])

SMILES: CCNC(=O)[C@@H]1CCCN1C(=O)[C@H](CCCNC(=N)N)NC(=O)[C@H](CC(C)C)NC(=O)[C@@H](CC(C)C)NC(=O)[C@H](Cc1ccc(O)cc1)NC(=O)[C@H](CO)NC(=O)[C@H](Cc1c[nH]c2ccccc12)NC(=O)[C@H](Cc1c[nH]cn1)NC(=O)[C@@H]1CCC(=O)N1 [leuprolide acetate, reference compound]
- AE leading to discontinuation: Abdominal pain: 1(0.7) n(%)
- AE leading to discontinuation: Arthralgia: 1(0.7) n(%)
- AE leading to discontinuation: Back pain: 1(0.7) n(%)
- AE leading to discontinuation: Blood pressure increased: 1(0.7) n(%)
- AE leading to discontinuation: Depression: 0(0.0) n(%)
- AE leading to discontinuation: Drug eruption: 1(0.7) n(%)
- AE leading to discontinuation: Fatigue: 0(0.0) n(%)
- AE leading to discontinuation: Headache: 0(0.0) n(%)
- AE leading to discontinuation: Hot flush: 1(0.7) n(%)
- AE leading to discontinuation: Hypertension: 1(0.7) n(%)
- AE leading to discontinuation: Liver function test abnormal: 1(0.7) n(%)
- AE leading to discontinuation: Liver function test increased: 1(0.7) n(%)
- AE leading to discontinuation: Malaise: 1(0.7) n(%)
- AE leading to discontinuation: Nausea: 1(0.7) n(%)
- AE leading to discontinuation: Pyrexia: 1(0.7) n(%)
- AE leading to discontinuation: Tenosynovitis: 0(0.0) n(%)
- AE leading to discontinuation: Tenosynovitis stenosans: 0(0.0) n(%)
- AE: Arthralgia: 9(6.3) n(%)
- AE: Bone density decreased: 8(5.6) n(%)
- AE: Bone resorption test abnormal: 7(4.9) n(%)
- AE: Dizziness: 7(4.9) n(%)
- AE: Gamma-glutamyl transferase increased: 9(6.3) n(%)
- AE: Genital haemorrhage: 7(4.9) n(%)
- AE: Headache: 14(9.9) n(%)
- AE: Hot flush: 75(52.8) n(%)
- AE: Hyperhidrosis: 15(10.6) n(%)
- AE: Malaise: 5(3.5) n(%)
- AE: Menorrhagia: 22(15.5) n(%)
- AE: Metrorrhagia: 93(65.5) n(%)
- AE: Resorption bone increased: 8(5.6) n(%)
- AE: Somnolence: 6(4.2) n(%)
- AE: Viral upper respiratory tract infection: 46(32.4) n(%)
- AEs Leading to Study Drug Discontinuation: 7(4.9) n(%)
- ALP > 3 × ULN: 0 (0.0) n (%)
- ALT > 3 × ULN: 2 (1.4) n (%)
- ALT > 5 × ULN: 0 (0.0) n (%)
- ALT and AST > 3 × ULN: 0 (0.0) n (%)
- ALT or AST > 3 × ULN with Tbili > 2 × ULN: 0 (0.0) n (%)
- AST > 3 × ULN: 0 (0.0) n (%)
- AST > 5 × ULN: 0 (0.0) n (%)
- Any Markedly Abnormal LFT: 2 (1.4) n (%)
- SAEs Leading to Study Drug Discontinuation: 0(0.0) n(%)
- Serious Treatment-Emergent AEs: 2(1.4) n(%)
- Serious Treatment-Emergent AEs, Not Related: 2(1.4) n(%)
- Serious Treatment-Emergent AEs, Related: 0(0.0) n(%)
- Treatment-Emergent AEs: 139(97.9) n(%)
- Treatment-Emergent AEs, Not Related: 5(3.5) n(%)
- Treatment-Emergent AEs, Related: 134(94.4) n(%)
